# Laboratory results: patent US9274101B2 (BIOLOG, Inc., priority 2001, dated 2016)
# Experiments:
# E. coli MG1655 [1] = type: cell-based, Escherichia coli
# E. coli MG1655 [2] = type: cell-based, Escherichia coli; remark: listed apart in the source
# [3] = test system: DMSO-differentiated HL-60 cells; experiment: Energy use by DMSO-differentiated HL-60 cells; type: cell-based, human; conditions: Homo sapiens, HL-60, 24 h, read-out: Energy Use by DMSO-Differentiated HL-60 Cells
# Method: In this Example, methods for testing in vitro-differentiated cells for their ability to use multiple energy sources are described. Prior to differentiation, HL-60 cells were cultured as described in Example 27. DMSO-induced differentiation (Odani et al., Res. Commun. Mol. Pathol. Pharmacol. 108:381-391 [2000]; and Yamaguchi et al., Biol. Pharm. Bull. 20:943-947 [1997]) was accomplished by incubation of the cells in the presence of 1.25% DMSO for 3 days.
# After washing, HL-60 cells were resuspended in DME-R. An aliquot of the cell suspension was counted by trypan blue exclusion and the cell density was adjusted to 6.67×10^5/mL. Fifty μL of DME-R were added to each well of the appropriate number of half area, 96-well plates, followed by 25 μL of the appropriate dilution of each test energy source. Stocks of 133 mM of each test chemical were prepared in tissue culture grade water, sterile filtered, and dilutions were prepared in a master plate so that, upon dilution into a half-area 96-well microtiter plate to a total well volume of 150 μL, the final concentrations would be 0.033 to 20 mM. Negative control wells received 25 μL of tissue culture grade water. The cells were plated at a volume of 75 μL/well, giving a final cell density of 5×10^4/well. For each plate containing energy sources and cells, a second, control plate containing only energy sources was prepared with the same total volume of liquid (148 μL/well). Plates were incubated at 5% CO2, 90-100% humidity, and 37° C. for 24 hours prior to addition of the MTS/MPMS calorimetric reagent (7.5 μL/well). The color formed in each well 24 hours after addition of the colorimetric reagent, was measured with a plate reader at 490 nm with a reference wavelength of 650 nm. OD values from the control plate were subtracted from the OD values obtained with cells prior to normalizing the data to % negative control (cells without added energy source).
# [4] = test system: Undifferentiated HL-60 cells; experiment: Energy use by undifferentiated HL-60 cells; type: cell-based, human; conditions: Homo sapiens, HL-60, 24 h, read-out: Energy Use by Undifferentiated HL-60 Cells
# HL-60 cells = experiment: HL-60 responses to selected compounds at a range of concentrations; type: cell-based, human
# Method: In this Example, methods for testing unattached cells for their ability to use various concentrations of selected carbon sources are described. The carbon sources used in this Example were identified by the methods disclosed in Example 27. Similarly, HL-60 cells were cultured as described in Example 27.
# After washing, HL-60 cells were resuspended in DME-R. An aliquot of the cell suspension was counted by trypan blue exclusion and the cell density was adjusted to 6.67×10^5/mL. Fifty μL of DME-R were added to each well of the appropriate number of half area, 96-well plates, followed by 23 μL of the appropriate dilution of each test energy source. Stocks of 133 mM of each test chemical were prepared in tissue culture grade water, sterile filtered, and dilutions were prepared in a master plate so that, upon dilution in a total volume of 150 μL, the final concentrations would be 0.033 to 20 mM. Negative control wells received 23 μL of tissue culture grade water. The cells were plated at a volume of 75 μL/well, giving a final cell density of 5×10^4/well. For each plate containing energy sources and cells, a second, control plate containing only energy sources was prepared. Plates were incubated at 5% CO2, 90-100% humidity, and 37° C. for 24 hours prior to addition of the MTS/MPMS colorometric reagent (7.5 μL/well). The color formed in each well after an additional 24 hour incubation period, was measured on a plate reader at 490 nm with a reference wavelength of 650 nm. OD values from the control plate were subtracted from the OD values obtained with cells prior to normalizing the data to % negative control (cells without added energy source).
# HepG2 cells = HepG2 cells on flat bottom plastic wells, energy sources at a range of concentrations; type: cell-based, human; conditions: Homo sapiens, HepG2, 72 h, read-out: HepG2 Cells Responses After 72 hours in Culture and a 4 hour Color Development Period
# Method: In this Example, methods for testing adherent cells for their ability to use multiple carbon sources are described. The human hepatocellular carcinoma cell line known as HepG2 (Knowles et al., Science, 209:497-499 [1980]) was chosen for this experiment. However, this application is not intended to be limited to the use of HepG2 cells, hepatocytes, carcinoma cells or even human cells.
# HepG2 cells were grown in Falcon tissue culture flasks with vented tops. The culture medium used was Minimal Essential medium (MEM, Invitrogen 11095) with 1 g/L glucose, 2 mM L-glutamine, 2.2 g/L sodium bicarbonate, 10 mg/L phenol red, and supplemented with 0.1 mM Nonessential Amino Acids, 1 mM sodium pyruvate, 50 U/mL penicillin, 50 μg/mL streptomycin, and 10% (v/v) heat inactivated fetal bovine serum (HI FBS, Invitrogen 16140). The cells were seeded at 2×10^4/cm^2 and used 3 days after initiation of culture. During all incubations, the cells were kept in an atmosphere of 5% CO2, 90-100% humidity, and 37° C. Cells were harvested by trypsinization for 3 minutes in 0.25% trypsin-1 mM EDTA and resuspended in an equal volume of culture medium. A viable cell count was obtained by trypan blue exclusion and an appropriate volume of the cell suspension (to have 33% more viable cells than was sufficient for the experiment) was placed in a polypropylene centrifuge tube. Cells were pelleted by centrifugation at 350×g for 10 minutes at room temperature, resuspended in Dulbecco's Phosphate Buffered Saline (D-PBS, Invitrogen 14040) and centrifuged a second time. Cells were then resuspended to two-thirds the final volume needed in Dulbecco' ? s Modified Eagle's Medium (DME, Sigma D5030) containing 10% HI FBS and penicillin-streptomycin but without glucose, L-glutamine, sodium pyruvate, and phenol red. An aliquot was counted by trypan blue exclusion and the cell density was adjusted to 1.28×10^5/mL. Cells were plated in 100 μL/well in wells of standard, 96-well plates (4×10^4 cells/cm^2) and allowed to adhere overnight prior to addition of test chemicals.
# For assay, the culture medium was aspirated, the wells were washed once with D-PBS and 170 μL of DME were added to each well, followed by 30 μL of the appropriate dilution of each test energy source. Stocks of 133 mM of each test chemical were prepared in tissue culture grade water, sterile filtered, and dilutions were prepared in a master plate so that, upon dilution into a regular 96-well MICROPLATE a total well volume of 200 μL, the final concentrations would be 0.033 to 20 mM. Negative control wells received 30 μL of tissue culture grade water. For each plate containing energy sources and cells, a second, control plate containing only energy sources was prepared. Plates were incubated at 5% CO2, 90-100% humidity, and 37° C. for 48 to 72 hours prior to addition of the MTS/PMS colorometric reagent (10 μL/well). The color formed in each well 4-24 hours after addition of the calorimetric reagent, was measured with a plate reader at 490 nm with a reference wavelength of 650 nm. OD values from the control plate were subtracted from the OD values obtained with cells prior to normalizing the data to % negative control (cells without added energy source).
# [5] = Homo sapiens, HL-60, read-out: HL-60 Cell Responses to Selected Compounds from PM1 and PM2
structure (smiles),measurement,setting,value
CCSCCC(N)C(=O)O (racemic) [DL-ethionine],"suitability as sulfur source (growth, purple color)",E. coli MG1655 [1],not suitable
CSCCC(NC(C)=O)C(=O)O (racemic) [N-acetyl-DL-methionine],"suitability as sulfur source (growth, purple color)",E. coli MG1655 [1],positive
CSCCC(NC(=O)CN)C(=O)O (racemic) [glycyl-DL-methionine],"suitability as sulfur source (growth, purple color)",E. coli MG1655 [1],positive
CCCCCCCCCCCCS(=O)(=O)O [1-dodecane-sulfonic acid],"suitability as sulfur source (growth, purple color)",E. coli MG1655 [1],not suitable
NCCP(=O)(O)O [2-aminoethyl phosphonate],"suitability as phosphorus source (growth, purple color)",E. coli MG1655 [1],weak positive
O=C(O)C(CO)OP(=O)(O)O (stereo not shown) [2-phosphoglyceric acid],"suitability as phosphorus source (growth, purple color)",E. coli MG1655 [1],positive
O=CC[C@@H](O)[C@H](O)[C@H](O)COP(=O)(O)O [2′-deoxyglucose 6-phosphate],"suitability as phosphorus source (growth, purple color)",E. coli MG1655 [1],positive
O=C(O)[C@H](O)[C@@H](O)[C@H](O)[C@H](O)COP(=O)(O)O [6-phosphogluconic acid],"suitability as phosphorus source (growth, purple color)",E. coli MG1655 [1],positive
N=C(N)NCCC[C@H](N)C(=O)O [L-arginine],"suitability as nitrogen source (growth, purple color)",E. coli MG1655 [2],positive
same,activity at 30 µM,[3],106%
same,activity at 100 µM,[3],103%
same,activity at 330 µM,[3],122%
same,activity at 1000 µM,[3],126%
same,activity at 3300 µM,[3],123%
same,activity at 10000 µM,[3],132%
same,activity at 15000 µM,[3],119%
same,activity at 20000 µM,[3],93.4%
same,activity at 30 µM,[4],124%
same,activity at 100 µM,[4],118%
same,activity at 330 µM,[4],114%
same,activity at 1000 µM,[4],109%
same,activity at 3300 µM,[4],115%
same,activity at 10000 µM,[4],132%
same,activity at 15000 µM,[4],140%
same,activity at 20000 µM,[4],126%
same,response in words,HL-60 cells,"strongly utilized, even at very low concentrations"
same,activity at 30 µM,HL-60 cells; [5],134%
same,activity at 100 µM,HL-60 cells; [5],138%
same,activity at 330 µM,HL-60 cells; [5],131%
same,activity at 1000 µM,HL-60 cells; [5],138%
same,activity at 3300 µM,HL-60 cells; [5],132%
same,activity at 10000 µM,HL-60 cells; [5],128%
same,activity at 15000 µM,HL-60 cells; [5],108%
same,activity at 20000 µM,HL-60 cells; [5],109%
same,activity at 30 µM,HepG2 cells,127%
same,activity at 100 µM,HepG2 cells,144%
same,activity at 330 µM,HepG2 cells,165%
same,activity at 1000 µM,HepG2 cells,142%
same,activity at 3300 µM,HepG2 cells,154%
same,activity at 10000 µM,HepG2 cells,119%
same,activity at 15000 µM,HepG2 cells,90.8%
same,activity at 20000 µM,HepG2 cells,60.3%
N[C@@H](CS(=O)(=O)O)C(=O)O [L-cysteic acid],"suitability as sulfur source (growth, purple color)",E. coli MG1655 [1],positive
N[C@@H](CS(=O)O)C(=O)O [L-cysteine sulphinic acid],"suitability as sulfur source (growth, purple color)",E. coli MG1655 [1],positive
N[C@@H](CSCSC[C@H](N)C(=O)O)C(=O)O [L-djenkolic acid],"suitability as sulfur source (growth, purple color)",E. coli MG1655 [1],positive
CS(=O)(=O)CC[C@H](N)C(=O)O [L-methionine sulfone],"suitability as sulfur source (growth, purple color)",E. coli MG1655 [1],not suitable
C[S+]([O-])CC[C@H](N)C(=O)O (stereo partly drawn) [L-methionine sulfoxide],"suitability as sulfur source (growth, purple color)",E. coli MG1655 [1],positive
CC(=O)N[C@@H](CS)C(=O)O [N-acetyl cysteine],"suitability as sulfur source (growth, purple color)",E. coli MG1655 [1],not suitable
N[C@H](COP(=O)(O)O)C(=O)O [O-phospho-D-serine],"suitability as phosphorus source (growth, purple color)",E. coli MG1655 [1],positive
N[C@H](Cc1ccc(OP(=O)(O)O)cc1)C(=O)O [O-phospho-D-tyrosine],"suitability as phosphorus source (growth, purple color)",E. coli MG1655 [1],positive
N[C@@H](COP(=O)(O)O)C(=O)O [O-phospho-L-serine],"suitability as phosphorus source (growth, purple color)",E. coli MG1655 [1],positive
C[C@@H](OP(=O)(O)O)[C@H](N)C(=O)O [O-phospho-L-threonine],"suitability as phosphorus source (growth, purple color)",E. coli MG1655 [1],positive
N[C@@H](Cc1ccc(OP(=O)(O)O)cc1)C(=O)O [O-phospho-L-tyrosine],"suitability as phosphorus source (growth, purple color)",E. coli MG1655 [1],positive
CSC[C@H](N)C(=O)O [S-methyl-L-cysteine],"suitability as sulfur source (growth, purple color)",E. coli MG1655 [1],weak positive
Nc1ncnc2c1ncn2C1OC(CO)C2OP(=O)(O)OC21 (stereo not shown) [adenosine 2′:3′-cyclic monophosphate],"suitability as phosphorus source (growth, purple color)",E. coli MG1655 [1],not suitable
O=C[C@@H](O)[C@H](O)[C@H](O)COP(=O)(O)O [arabinose 5-phosphate],"suitability as phosphorus source (growth, purple color)",E. coli MG1655 [1],positive
N[C@@H](CCSC[C@H](N)C(=O)O)C(=O)O [cystathionine],"suitability as sulfur source (growth, purple color)",E. coli MG1655 [1],positive
Nc1ccn([C@@H]2O[C@H](CO)C3OP(=O)(O)O[C@@H]32)c(=O)n1 (stereo partly shown) [cytidine 2′:3′-cyclic monophosphate],"suitability as phosphorus source (growth, purple color)",E. coli MG1655 [1],positive
Nc1ccn([C@@H]2O[C@@H]3COP(=O)(O)O[C@H]3[C@H]2O)c(=O)n1 [cytidine 3′:5′-cyclic monophosphate],"suitability as phosphorus source (growth, purple color)",E. coli MG1655 [1],not suitable
OP(O)(=S)S [dithiophosphate],"suitability as phosphorus source (growth, purple color)",E. coli MG1655 [1],positive
same,"suitability as sulfur source (growth, purple color)",E. coli MG1655 [1],positive
O=C(COP(=O)(O)O)[C@@H](O)[C@H](O)[C@H](O)CO [fructose 1-phosphate],"suitability as phosphorus source (growth, purple color)",E. coli MG1655 [1],positive
N[C@H]1C(OP(=O)(O)O)O[C@H](CO)[C@@H](O)[C@@H]1O (stereo partly shown) [glucosamine 1-phosphate],"suitability as phosphorus source (growth, purple color)",E. coli MG1655 [1],positive
N[C@H]1C(O)O[C@H](COP(=O)(O)O)[C@@H](O)[C@@H]1O (stereo partly shown) [glucosamine 6-phosphate],"suitability as phosphorus source (growth, purple color)",E. coli MG1655 [1],positive
